Earlier results, collected in patent US20210244941A1, “METHODS AND APPARATUS FOR A WEARABLE ELECTRONIC DIGITAL THERAPEUTIC DEVICE” (KINAPTIC, LLC, priority 2018, published 2021).
Where two headings read alike, the source gives them in different places.

Assays:
[1] = not given; remark: listed apart in the source
[2] = rats, oral dosing
[3] = dogs, oral dosing
[4] = single- (up to 80 mg) and multiple-dose studies, healthy subjects and patients

Row | Compound | sweat induction (sweat glands; gel containing carbachol on sensors, sedentary patient) | physical sensation or discomfort (sweat glands; iontophoresis, electrical current at 0.2 milliamps into upper layer of skin) | absorption (single doses, humans) | oral bioavailability (single doses, humans) | safety and tolerability (single doses, humans) | accumulation [4] | pharmacokinetics versus dose [4] | increase in area under the concentration-time curve (AUC) ([1]; animal models) | absorption after oral dosing ([1]; animal models, oral dosing) | excretion ([1]; rats and dogs, renal and faecal/biliary routes) | absolute bioavailability [2] | absolute bioavailability [3]
1 | C[N+](C)(C)CCOC(N)=O [carbachol] | effective to induce sweat | no physical sensation or discomfort | – | – | – | – | – | – | – | – | – | –
2 | O=C(NC[C@H]1CN(c2ccc(N3CCOCC3=O)cc2)C(=O)O1)c1ccc(Cl)s1 [rivaroxaban] | – | – | rapid absorption | high | safe and well tolerated | no evidence of accumulation | dose-proportional | dose proportional increase | absorbed rapidly | rapidly excreted | 57-66% | 60-86%
